Data reported in patent US9040545B2, “Heterocyclyl pyrazolopyrimidine analogues as selective JAK inhibitors” (Cellzome Limited, priority 2010, dated 2015).

Molecular target: T1, JAK3 (Homo sapiens, UniProt P52333)
T1 construct: endogenous in cells; host or cells: mixed Molt4/Ramos lysate (1:2)
T1 sequence (P52333 1-1124): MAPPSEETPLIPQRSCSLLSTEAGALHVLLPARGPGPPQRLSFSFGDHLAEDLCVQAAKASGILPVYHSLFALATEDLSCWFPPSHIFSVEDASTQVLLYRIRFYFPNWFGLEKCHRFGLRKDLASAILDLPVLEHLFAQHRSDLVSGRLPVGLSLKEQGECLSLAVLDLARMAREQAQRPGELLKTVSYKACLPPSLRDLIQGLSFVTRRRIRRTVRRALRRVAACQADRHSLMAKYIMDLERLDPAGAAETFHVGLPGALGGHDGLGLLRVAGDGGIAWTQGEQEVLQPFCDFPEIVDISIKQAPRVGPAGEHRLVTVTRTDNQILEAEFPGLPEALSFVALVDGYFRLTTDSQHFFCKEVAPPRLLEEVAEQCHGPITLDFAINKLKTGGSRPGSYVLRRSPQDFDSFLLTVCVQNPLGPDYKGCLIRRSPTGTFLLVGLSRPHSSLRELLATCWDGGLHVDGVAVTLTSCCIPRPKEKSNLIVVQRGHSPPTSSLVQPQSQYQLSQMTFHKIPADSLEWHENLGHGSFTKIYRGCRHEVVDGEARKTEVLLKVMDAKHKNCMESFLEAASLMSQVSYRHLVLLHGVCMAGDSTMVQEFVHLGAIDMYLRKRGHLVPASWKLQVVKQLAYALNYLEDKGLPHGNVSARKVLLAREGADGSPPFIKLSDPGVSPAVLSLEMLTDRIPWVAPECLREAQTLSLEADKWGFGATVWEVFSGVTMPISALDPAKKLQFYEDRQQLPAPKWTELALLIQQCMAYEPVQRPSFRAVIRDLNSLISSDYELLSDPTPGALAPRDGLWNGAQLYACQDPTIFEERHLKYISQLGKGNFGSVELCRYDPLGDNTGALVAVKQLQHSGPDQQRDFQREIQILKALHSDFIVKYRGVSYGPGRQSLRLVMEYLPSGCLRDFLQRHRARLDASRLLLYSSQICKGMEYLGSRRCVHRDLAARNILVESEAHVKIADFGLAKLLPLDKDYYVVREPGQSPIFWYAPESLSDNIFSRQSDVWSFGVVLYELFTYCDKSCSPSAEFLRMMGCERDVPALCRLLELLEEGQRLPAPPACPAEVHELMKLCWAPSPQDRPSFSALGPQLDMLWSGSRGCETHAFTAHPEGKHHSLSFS
Test: Kinobeads assay, JAK3
Assay type: binding
Details: mixed Molt4/Ramos lysate, read-out: Inhibition values (IC50) JAK3
Procedure: The compounds of the present invention as described in the previous examples were tested in a Kinobeads™ assay as described for ZAP-70 (WO-A 2007/137867). Briefly, test compounds (at various concentrations) and the affinity matrix with the immobilized aminopyrido-pyrimidine ligand 24 were added to cell lysate aliquots and allowed to bind to the proteins in the lysate sample. After the incubation time the beads with captured proteins were separated from the lysate. Bound proteins were then eluted and the presence of JAK2 and JAK3 was detected and quantified using specific antibodies in a dot blot procedure and the Odyssey infrared detection system. Dose response curves for individual kinases were generated and IC50 values calculated. Kinobeads™ assays for ZAP-70 (WO-A 2007/137867) and for kinase selectivity profiling (WO-A 2006/134056) have been previously described.
The affinity matrix was washed two times with 15 mL of 1×DP buffer containing 0.2% NP40 (IGEPAL® CA-630, Sigma, #I3021) and then resuspended in 1×DP buffer containing 0.2% NP40 (3% beads slurry).
5×DP buffer 250 mM Tris-HCl pH 7.4, 25% Glycerol, 7.5 mM MgCl2, 750 mM NaCl, 5 mM Na3VO4; filter the 5×DP buffer through a 0.22 μm filter and store in aliquots at −80° C. The 5×DP buffer is diluted with H2O to 1×DP buffer containing 1 mM DTT and 25 mM NaF.
Stock solutions of test compounds were prepared in DMSO. In a 96 well plate 30 μL solution of diluted test compounds at 5 mM in DMSO were prepared. Starting with this solution a 1:3 dilution series (9 steps) was prepared. For control experiments (no test compound) a buffer containing 2% DMSO was used.
Molt4 cells (ATCC catalogue number CRL-1582) and Ramos cells (ATCC catalogue number CRL-1596) were grown in 1 L Spinner flasks (Integra Biosciences, #182101) in suspension in RPMI 1640 medium (Invitrogen, #21875-034) supplemented with 10% Fetal Bovine Serum (Invitrogen) at a density between 0.15×106 and 1.2×10^6 cells/mL. Cells were harvested by centrifugation, washed once with 1×PBS buffer (Invitrogen, #14190-094) and cell pellets were frozen in liquid nitrogen and subsequently stored at −80° C. Cells were homogenized in a Potter S homogenizer in lysis buffer: 50 mM Tris-HCl, 0.8% NP40, 5% glycerol, 150 mM NaCl, 1.5 mM MgCl2, 25 mM NaF, 1 mM sodium vanadate, 1 mM DTT, pH 7.5. One complete EDTA-free tablet (protease inhibitor cocktail, Roche Diagnostics, 1873580) per 25 mL buffer was added. The material was dounced 10 times using a mechanized POTTER S, transferred to 50 mL falcon tubes, incubated for 30 minutes on ice and spun down for 10 minutes at 20,000 g at 4° C. (10,000 rpm in Sorvall SLA600, precooled). The supernatant was transferred to an ultracentrifuge (UZ)-polycarbonate tube (Beckmann, 355654) and spun for 1 hour at 100,000 g at 4° C. (33.500 rpm in Ti50.2, precooled). The supernatant was transferred again to a fresh 50 mL falcon tube, the protein concentration was determined by a Bradford assay (BioRad) and samples containing 50 mg of protein per aliquot were prepared. The samples were immediately used for experiments or frozen in liquid nitrogen and stored frozen at −80° C.
Cell lysate (approximately 50 mg protein per plate) was thawed in a water bath at room temperature and then stored on ice. To the thawed cell lysate 1×DP 0.8% NP40 buffer containing protease inhibitors (1 tablet for 25 mL buffer; EDTA-free protease inhibitor cocktail; Roche Diagnostics 1873580) was added in order to reach a final protein concentration of 10 mg/mL total protein. The diluted cell lysate was stored on ice. Mixed Molt4/Ramos lysate was prepared by combining one volume of Molt4 lysate and two volumes of Ramos lysate (ratio 1:2).
To a 96 well filter plate (Multiscreen HTS, BV Filter Plates, Millipore #MSBVN1250) were added per well: 100 μL affinity matrix (3% beads slurry), 3 μL of compound solution, and 50 μL of diluted lysate. […]

Row | Compound | IC50 [nM]
1 | Cn1cc(Nc2ncc3cnn(Cc4cccc(N5CCNCC5)c4)c3n2)cn1 [Example 22, N-(1-Methyl-1H-pyrazol-4-yl)-1-(3-(piperazin-1-yl)benzyl)-1H-pyrazolo[3,4-d]pyrimidin-6-amine] | < 100
2 | FC(F)Cn1cc(Nc2ncc3cnn(Cc4cccc(N5CCOCC5)c4)c3n2)cn1 [Example 23, N-(1-(2,2-Difluoroethyl)-1H-pyrazol-4-yl)-1-(3-morpholinobenzyl)-1H-pyrazolo[3,4-d]pyrimidin-6-amine] | < 100
3 | CNC(=O)CCn1cc(Nc2ncc3cnn(Cc4cccc(N5CCOCC5)c4)c3n2)cn1 [Example 24, N-Methyl-3-(4-((1-(3-morpholinobenzyl)-1H-pyrazolo[3,4-d]pyrimidin-6-yl)amino)-1H-pyrazol-1-yl)propanamide] | < 100
4 | Cn1cc(Nc2ncc3cnn(Cc4cccc(N5CCS(=O)(=O)CC5)c4)c3n2)cn1 [Example 25, 4-(3-((6-((1-Methyl-1H-pyrazol-4-yl)amino)-1H-pyrazolo[3,4-d]pyrimidin-1-yl)methyl)phenyl)thiomorpholine 1,1-dioxide] | < 100
5 | Cn1cc(Nc2ncc3cnn(Cc4cccc(N5CC6CCC(C5)O6)c4)c3n2)cn1 [Example 26] | < 100
6 | Cn1cc(Nc2ncc3cnn(Cc4cccc(N5CCOCC5=O)c4)c3n2)cn1 [Example 27, 4-(3-((6-((1-Methyl-1H-pyrazol-4-yl)amino)-1H-pyrazolo[3,4-d]pyrimidin-1-yl)methyl)phenyl)morpholin-3-one] | < 100
7 | CN(C)CCCn1cc(Nc2ncc3cnn(Cc4cccc(N5CCOCC5=O)c4)c3n2)cn1 [Example 28, 4-(3-((6-((1-(3-(Dimethylamino)propyl)-1H-pyrazol-4-yl)amino)-1H-pyrazolo[3,4-d]pyrimidin-1-yl)methyl)phenyl)morpholin-3-one] | < 100
8 | O=C1COCCN1c1cccc(Cn2ncc3cnc(Nc4cnn(CCO)c4)nc32)c1 [Example 29, 4-(3-((6-((1-(2-Hydroxyethyl)-1H-pyrazol-4-yl)amino)-1H-pyrazolo[3,4-d]pyrimidin-1-yl)methyl)phenyl)morpholin-3-one] | < 100
9 | O=C1CCCN1CCCn1cc(Nc2ncc3cnn(Cc4cccc(N5CCOCC5)c4)c3n2)cn1 [Example 30, 1-(3-(4-((1-(3-Morpholinobenzyl)-1H-pyrazolo[3,4-d]pyrimidin-6-yl)amino)-1H-pyrazol-1-yl)propyl)pyrrolidin-2-one] | < 100
10 | CN(C)CC1(Cn2cc(Nc3ncc4cnn(Cc5cccc(N6CCOCC6)c5)c4n3)cn2)COC1 [Example 31, N-(1-((3-((Dimethylamino)methyl)oxetan-3-yl)methyl)-1H-pyrazol-4-yl)-1-(3-morpholinobenzyl)-1H-pyrazolo[3,4-d]pyrimidin-6-amine] | < 100
11 | CC(CN(C)C)Cn1cc(Nc2ncc3cnn(Cc4cccc(N5CCOCC5)c4)c3n2)cn1 (centres unmarked) [Example 32, N-(1-(3-(Dimethylamino)-2-methylpropyl)-1H-pyrazol-4-yl)-1-(3-morpholinobenzyl)-1H-pyrazolo[3,4-d]pyrimidin-6-amine] | < 100
12 | CN(C)CC(O)Cn1cc(Nc2ncc3cnn(Cc4cccc(N5CCOCC5)c4)c3n2)cn1 (centres unmarked) [Example 33, 1-(Dimethylamino)-3-(4-((1-(3-morpholinobenzyl)-1H-pyrazolo[3,4-d]pyrimidin-6-yl)amino)-1H-pyrazol-1-yl)propan-2-ol] | < 100
13 | NCCCn1cc(Nc2ncc3cnn(Cc4cccc(N5CCOCC5)c4)c3n2)cn1 [Example 34, N-(1-(3-Aminopropyl)-1H-pyrazol-4-yl)-1-(3-morpholinobenzyl)-1H-pyrazolo[3,4-d]pyrimidin-6-amine] | < 100
14 | O=C(CCn1cc(Nc2ncc3cnn(Cc4cccc(N5CCOCC5)c4)c3n2)cn1)NC1CC1 [Example 35, N-Cyclopropyl-3-(4-((1-(3-morpholinobenzyl)-1H-pyrazolo[3,4-d]pyrimidin-6-yl)amino)-1H-pyrazol-1-yl)propanamide] | < 100
15 | Cn1cc(Nc2ncc3cnn(Cc4cccc(N5CCNCC5=O)c4)c3n2)cn1 [Example 36, 1-(3-((6-((1-Methyl-1H-pyrazol-4-yl)amino)-1H-pyrazolo[3,4-d]pyrimidin-1-yl)methyl)phenyl)piperazin-2-one] | < 100
16 | Cn1cc(Nc2ncc3cnn(Cc4cc(N5CCOCC5)cc(F)c4F)c3n2)cn1 [Example 37, 1-(2,3-Difluoro-5-morpholinobenzyl)-N-(1-methyl-1H-pyrazol-4-yl)-1H-pyrazolo[3,4-d]pyrimidin-6-amine] | 100 to 1000
17 | Cn1cc(Nc2ncc3cnn(Cc4c(F)ccc(N5CCOCC5)c4F)c3n2)cn1 [Example 38, 1-(2,6-Difluoro-3-morpholinobenzyl)-N-(1-methyl-1H-pyrazol-4-yl)-1H-pyrazolo[3,4-d]pyrimidin-6-amine] | < 100
18 | OCCn1cc(Nc2ncc3cnn(Cc4cccc(N5CCOCC5)c4F)c3n2)cn1 [Example 39, 2-(4-((1-(2-Fluoro-3-morpholinobenzyl)-1H-pyrazolo[3,4-d]pyrimidin-6-yl)amino)-1H-pyrazol-1-yl)ethanol] | < 100
19 | Cn1cc(Nc2ncc3cnn(Cc4cccc(N5CCOCC5=O)c4F)c3n2)cn1 [Example 40, 4-(2-Fluoro-3-((6-((1-methyl-1H-pyrazol-4-yl)amino)-1H-pyrazolo[3,4-d]pyrimidin-1-yl)methyl)phenyl)morpholin-3-one] | < 100
20 | CNCC1(Cn2cc(Nc3ncc4cnn(Cc5cccc(N6CCOCC6)c5)c4n3)cn2)COC1 [Example 41, N-(1-((3-((Methylamino)methyl)oxetan-3-yl)methyl)-1H-pyrazol-4-yl)-1-(3-morpholinobenzyl)-1H-pyrazolo[3,4-d]pyrimidin-6-amine] | < 100
